Assay results: patent publication US20230212164A1, “ANNULATED 2-AMINO-3-CYANO THIOPHENES AND DERIVATIVES FOR THE TREATMENT OF CANCER” (BOEHRINGER INGELHEIM INTERNATIONAL GMBH, priority 2020, published 2023)
pIC50: −log10 of the molar value.

Key:
[1] = target: T1, protein-protein interaction between SOS1 and KRAS G12C (Homo sapiens, UniProt P01116, C118S/C51S/C80L/G12C); assay: KRAS::SOS1 AlphaScreen binding assay
T1 construct: His6 (N)
Protocol: KRAS::SOS1 AlphaScreen Binding Assay
Assay buffer: • 1×PBS • 0.1% BSA • 0.05% Tween 20
AlphaLISA Glutathione Acceptor Beads and AlphaScreen Streptavidin Donor Beads are mixed in assay buffer at a concentration of 10 μg/mL (final assay concentration) each prior to use and kept at room temperature.
Compounds are diluted to a final start concentration of 100 μM and are tested in duplicate. […] For compound a start concentration of 100 μM, 150 nL of compound solution is transferred per well in 11 concentrations in duplicate with serial 1:5 dilutions.
The assay is run using a fully automated robotic system in a darkened room below 100 Lux. 10 μL of KRAS::SOS1 GDP mix is added into columns 1-24 to the 150 nL of compound solution (final dilution in the assay 1:100, final DMSO concentration 1%).
After 30 minutes incubation time 5 μL of bead mix is added into columns 1-23. Plates are kept at room temperature in a darkened incubator. After further 60 minutes incubation, the signal is measured using a PerkinElmer Envision HTS Multilabel Reader using the AlphaScreen specifications from PerkinElmer. Each plate contains the following controls: • diluted DMSO+KRAS::SOS1 GDP mix+bead mix • diluted DMSO+KRAS::SOS1 GDP mix
IC50 values are calculated and analyzed using a 4 parametric logistic model.

[2] = target: KRASG12-dependent Ba/F3 cells (Homo sapiens, UniProt P01116, G12C, cells depend on it); assay: Ba/F3 cell model proliferation assay (AlamarBlue, 72 h); type: cell-based; settings: Ba/F3 cells transduced with KRASG12C, read-out: IC50 Ba/F3 KRASG12C
KRASG12-dependent Ba/F3 cells, sequence (P01116 whole entry G12C): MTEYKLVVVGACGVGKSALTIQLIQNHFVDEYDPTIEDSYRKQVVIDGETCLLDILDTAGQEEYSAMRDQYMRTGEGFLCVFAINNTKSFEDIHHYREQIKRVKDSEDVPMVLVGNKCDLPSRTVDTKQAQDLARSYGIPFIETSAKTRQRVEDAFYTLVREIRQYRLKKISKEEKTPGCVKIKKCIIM
Protocol: Ba/F3 Cell Model Generation and Proliferation Assay
Plasmids containing KRASG12 mutants were obtained from GeneScript. To generate KRASG12-dependent Ba/F3 models, Ba/F3 cells were transduced with retroviruses containing vectors that harbor KRASG12 isoforms. Platinum-E cells (Cell Biolabs) were used for retrovirus packaging. Retrovirus was added to Ba/F3 cells. To ensure infection, 4 μg/mL polybrene was added and cells were spinfected. […] Cells with an infection efficiency of 10% to 20% were further cultivated and puromycin selection with 1 μg/mL was initiated. As a control, parental Ba/F3 cells were used to show selection status. Selection was considered successful when parental Ba/F3 cells cultures died. To evaluate the transforming potential of KRASG12 mutations, the growth medium was no longer supplemented with IL-3. Ba/F3 cells harboring the empty vector were used as a control. Approximately ten days before conducting the experiments, puromycin was left out.
All treatments were performed in technical duplicates. The assay is run using a fully automated robotic system. Treated cells were incubated for 72 h at 37° C. with 5% CO2.
AlamarBlue™ (ThermoFisher), a viability stain, was added and fluorescence measured in the PerkinElmer Envision HTS Multilabel Reader.

[3] = tested on: pERK (Thr202/Tyr204) in NCI-H358_Cas9_SOS2 (SOS2 knocked); assay: ERK phosphorylation assay 2 (AlphaLISA SureFire Ultra p-ERK1/2); settings: read-out: IC50 H358 pERK, ERK phosphorylation assay 2 (values marked with *)
Protocol: ERK Phosphorylation Assay
Low IC50 values in this assay setting are indicative of high potency of the compounds according to the invention.
GFP positive cells were collected and further expanded. These GFP-positive cell pools were single-cell diluted and SOS2 knock-out clones were identified via Western-blot and genomic DNA sequencing analysis.
Materials Used for the Assay:
(§1) AlphaLISA SureFire Ultra p-ERK1/2 (Thr202/Tyr204) Assay Kit (ALSU-PERK-A500)
Cells are seeded at 40,000 cells per well in /60 μL of RPMI with 10% FBS, non-essential amino acids, pyruvate and glutamax in Greiner TC 384 plates. The cells are incubated for 1 h at room temperature and then incubated overnight in an incubator at 37° C. and 5% CO2 in a humidified atmosphere. 60 nL compound solution (10 mM DMSO stock solution) is then added using a Labcyte Echo 550 device. After a 1 h incubation in the aforementioned incubator the medium is removed after centrifugation and the cells lysed by addition of 20 μL of 1.6-fold lysis buffer from the AlphaLISA SureFire Ultra pERK1/2 (Thr202/Tyr204) Assay Kit with added protease inhibitors, 100 nM trametinib+100 nM staurosporine. After 20 minutes of incubation at room temperature with shaking, 6 μL of each lysate sample is transferred to a 384-well Proxiplate and analyzed for pERK (Thr202/Tyr204) with the AlphaLISA SureFire Ultra pERK1/2 (Thr202/Tyr204) Assay Kit. 3 μL Acceptor Mix and 3 μL Donor Mix are added under subdued light and incubated for 2 h at room temperature in the dark, before the signal is measured on a PerkinElmer Envision HTS Multilabel Reader. The raw data were imported into and analyzed with the Boehringer Ingelheim proprietary software MegaLab (curve fitting based on the program PRISM, GraphPad Inc.).

[4] = tested on: pERK (Thr202/Tyr204) in NCI-H358 (KRAS G12C mutation); assay: ERK phosphorylation assay 1 (AlphaLISA SureFire Ultra p-ERK1/2); settings: Homo sapiens, NCI-H358, read-out: IC50 H358 pERK
Protocol: ERK Phosphorylation Assay
Materials Used for the Assay:
as §1
The cells are incubated for 1 h at room temperature and then incubated overnight in an incubator at 37° C. and 5% CO2 in a humidified atmosphere. 60 nL compound solution (10 mM DMSO stock solution) is then added using a Labcyte Echo 550 device. […] After 20 minutes of incubation at room temperature with shaking, 6 μL of each lysate sample is transferred to a 384-well Proxiplate and analyzed for pERK (Thr202/Tyr204) with the AlphaLISA SureFire Ultra pERK1/2 (Thr202/Tyr204) Assay Kit. 3 μL Acceptor Mix and 3 μL Donor Mix are added under subdued light and incubated for 2 h at room temperature in the dark, before the signal is measured on a PerkinElmer Envision HTS Multilabel Reader. The raw data were imported into and analyzed with the Boehringer Ingelheim proprietary software MegaLab (curve fitting based on the program PRISM, GraphPad Inc.).

T1 sequence (P01116 1-169 isoform P01116-2 G12C/C51S/C80L/C118S): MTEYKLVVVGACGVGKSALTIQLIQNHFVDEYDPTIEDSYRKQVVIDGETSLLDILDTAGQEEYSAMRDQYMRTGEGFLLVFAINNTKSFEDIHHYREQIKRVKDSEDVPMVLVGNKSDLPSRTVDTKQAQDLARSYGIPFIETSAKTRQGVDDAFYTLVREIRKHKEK

Row | pIC50 ([1]; Table 36) | GI50 [2] [nM] | pIC50 [3] | pIC50 ([1]; Table 37) | pIC50 ([1]; Table 38) | pIC50 [4] | Compound
1 | 8.52 | 9.9 | 7.96 |  |  |  | C=CC(=O)N1CCN(c2cc(O[C@@H](C)[C@@H]3CCCN3C)nc(-c3noc([C@@]4(C)CCCc5sc(N)c(C#N)c54)n3)c2)CC12CCCC2 [Ia-84]
2 | 8.80 | 0.7 | 9.15 |  |  |  | C=CC(=O)N1C[C@H](Oc2cc(O[C@@H](C)[C@@H]3CCCN3C)nc(-c3noc([C@@]4(C)CCCc5sc(N)c(C#N)c54)n3)c2)[C@H]1C [Ia-85]
3 | 8.80 | 1.9 | 8.77 |  |  |  | C=CC(=O)N1CC[C@@H](Oc2cc(O[C@@H](C)[C@@H]3CCCN3C)nc(-c3noc([C@@]4(C)CCCc5sc(N)c(C#N)c54)n3)c2)C1 [Ia-81]
4 | 8.82 | 5.9 | 9.05 |  |  |  | C=CC(=O)N1CCN(c2cc(-c3noc([C@@]4(C)CCCc5sc(N)c(C#N)c54)n3)nc(O[C@@H](C)[C@@H]3CCCN3C)n2)CC12CC2 [Ia-57]
5 |  | 116 | 7.60 | 7.96 |  |  | COC/C=C/C(=O)N1CCN(c2cc(-c3noc([C@@]4(C)CCCc5sc(N)c(C#N)c54)n3)nc(O[C@@H](C)[C@@H]3CCCN3C)n2)CC12CC2 [Ia-160]
6 | 7.96 | 496 | 6.92 |  |  |  | C=CC(=O)N1CCN(c2cc(-c3noc([C@@]4(C)CCCc5sc(N)c(C#N)c54)n3)nc(OC3C4CC5CN(C)C3C5C4)n2)CC1 (stereo partly shown) [Ia-50]
7 | 8.74 | 4.3 | 8.51 |  |  |  | C=CC(=O)N1CCN(c2cc(-c3noc([C@@]4(C)CCCc5sc(N)c(C#N)c54)n3)nc(O[C@@H](C)[C@@H]3CCCN3C)n2)C(C)C1C (stereo partly shown) [Ia-53]
8 | 7.82 |  | 6.75 |  |  |  | C=CC(=O)N1CCN(c2cc(-c3noc([C@@]4(C)CCCc5sc(N)c(C#N)c54)n3)nc(OC3(CN4CCCC4)CC3)n2)CC1 [Ia-67]
9 | 8.40 | 26 | 7.98 |  |  |  | C=CC(=O)N1CCN(c2cc(-c3noc([C@@]4(C)CCCc5sc(N)c(C#N)c54)n3)nc(OC3CCCC34CCCN4C)n2)CC1 (stereo partly shown) [Ia-49]
10 | 8.70 | 25.4 | 8.02 |  |  |  | C=CC(=O)N1CCN(c2cc(-c3noc([C@@]4(C)CCCc5sc(N)c(C#N)c54)n3)nc(O[C@@H](C)[C@@H]3CCCN3C3CCN(C)CC3)n2)CC1 [Ia-135]
11 | 6.29 | 1310 | 5.87 |  |  |  | C=CC(=O)N1CCN(c2cc(-c3noc([C@@]4(C)CCc5sc(N)c(C#N)c54)n3)nc(N[C@@H](C)[C@@H]3CCCN3C)n2)CC1 [Ia-132]
12 |  | 13.4 | 8.38 |  | 8.52 |  | CC#CC(=O)N1CCN(c2cc(-c3noc([C@@]4(C)CCCc5sc(N)c(C#N)c54)n3)nc(O[C@@H](C)[C@@H]3CCCN3C)n2)CC12CC2 [Ia-166]
13 | 6.81 | 702 | 6.34 |  |  |  | C=CC(=O)N1CCC(Oc2cc(-c3noc(C4(C)CCCc5sc(N)c(C#N)c54)n3)nc(N3CCC4(CCN(C)CC4)CC3)c2)CC1 (stereo not shown) [Ia-78]
14 |  | 467 | 6.99 | 8.40 |  |  | C[C@H](Oc1nc(-c2noc([C@@]3(C)CCCc4sc(N)c(C#N)c43)n2)cc(N2CCN(C(=O)/C=C/CN3CCOCC3)CC2)n1)[C@@H]1CCCN1C [Ia-158]
15 | 6.65 |  | 6.86 |  |  |  | C=CC(=O)N1CCN(c2cc(-c3noc([C@@]4(C)CCCc5sc(N)c(C#N)c54)n3)nc(N3CCOC[C@@H]3C)n2)CC1 [Ia-73]
16 | 6.51 |  | 6.69 |  |  |  | C=CC(=O)N1CCCC(Oc2cc(-c3noc([C@@]4(C)CCCc5sc(N)c(C#N)c54)n3)nc(N3CCCN(C)C[C@@H]3C)c2)C1 (stereo partly shown) [Ia-6]
17 | 8.05 |  | 6.91 |  |  |  | C=CC(=O)N1CCN(c2cc(-c3noc([C@@]4(C)CCCc5sc(N)c(C#N)c54)n3)nc(OC(C)CN3CCN(C)CC3)n2)CC1 (stereo partly shown) [Ia-66]

Row | pIC50 ([1]; Table 36) | GI50 [2] [nM] | pIC50 [3] | pIC50 ([1]; Table 37) | pIC50 ([1]; Table 38) | pIC50 [4] | Compound
18 | 8.70 |  | 8.11 |  |  |  | C=CC(=O)N1CCN(c2cc(-c3noc([C@@]4(C)CCCc5sc(N)c(C#N)c54)n3)nc(O[C@@H](CC)[C@@H]3CCCN3C)n2)CC1 [Ia-138]
19 | 7.19 | 681 |  |  |  | 7.88 | [2H]C([2H])([2H])N1CCN(c2cc(N3CCN(C(=O)C=C)CC3)cc(-c3noc(C4(C)CCCc5sc(N)c(C#N)c54)n3)n2)CC1 (stereo not shown) [Ia-128]
20 | 8.00 | 87.6 |  |  |  | 8.21 | C=CC(=O)N1CCN(c2cc(-c3noc(C4(C)CCCc5sc(N)c(C#N)c54)n3)nc(N3CCC(N4CC[C@@H](F)C4)CC3)c2)CC1 (stereo partly shown) [Ia-39]
21 | 7.28 | 219 |  |  |  | 8.14 | C=CC(=O)N1CCN(c2cc(-c3noc(C4(C)CCCc5sc(N)c(C#N)c54)n3)nc(N3CCN(C)C[C@@H]3CC)c2)CC1 (stereo partly shown) [Ia-15]
22 | 6.74 |  | 6.26 |  |  |  | C=CC(=O)N1CCN(c2cc(-c3noc([C@@]4(C)CCCc5sc(N)c(C#N)c54)n3)nc(N3CC[C@H](O)[C@@H]3C)n2)CC1 [Ia-75]
23 | 8.30 | 25.6 |  |  |  | 8.21 | C=CC(=O)N1CCN(c2cc(-c3noc(C4(C)CCCc5sc(N)c(C#N)c54)n3)nc(N3CCCN(CCCOC)C[C@@H]3C)c2)CC1 (stereo partly shown) [Ia-19]
24 | 7.72 |  | 7.01 |  |  |  | C=CC(=O)N1CCN(c2cc(-c3noc([C@@]4(C)CCCc5sc(N)c(C#N)c54)n3)nc(O[C@H]3C4CC5CN(C)[C@@H]3[C@H]5C4)n2)CC1 (stereo partly shown) [Ia-51]
25 | 6.59 | 4380 |  |  |  | 6.55 | C=CC(=O)N1CCN(c2cc(-c3noc(C4(C)CCCc5sc(N)c(C#N)c54)n3)nc(N3CCC4(CCN(C)CC4)CC3)c2)CC1 (stereo not shown) [Ia-34]
26 | 6.41 |  | 6.00 |  |  |  | C=CC(=O)N1CCN(c2cc(-c3noc([C@@]4(C)CCCc5sc(N)c(C#N)c54)n3)nc(N3CCC4(CC(O)C4)C3)n2)CC1 (stereo partly shown) [Ia-76]
27 | 8.22 | 22.5 |  |  |  | 8.19 | C=CC(=O)N1CCN(c2cc(-c3noc([C@@]4(C)CCCc5sc(N)c(C#N)c54)n3)nc(N3CCCN(CCOC)C[C@@H]3C)n2)CC1 [Ia-129]
28 | 7.57 |  | 6.57 |  |  |  | C=CC(=O)N1CCN(c2cc(-c3noc([C@@]4(C)CCCc5sc(N)c(C#N)c54)n3)nc(O[C@H]3CCN(C)[C@H]3C)n2)CC1 [Ia-68]
29 | 7.51 | 208 |  |  |  | 8.19 | C=CC(=O)N1CCN(c2cc(-c3noc([C@@]4(C)CCCc5sc(N)c(C#N)c54)n3)nc(N3CCN(C)CC3)c2)CC1 [Ia-116]
30 | 7.64 |  | 6.53 |  |  |  | C=CC(=O)N1CCN(c2cc(-c3noc([C@@]4(C)CCCc5sc(N)c(C#N)c54)n3)nc(OC3CC4(CCN(C)C4)C3)n2)CC1 (stereo partly shown) [Ia-69]
31 | 8.30 | 22.4 |  |  |  | 8.21 | C=CC(=O)N1CCN(c2cc(-c3noc([C@@]4(C)CCCc5sc(N)c(C#N)c54)n3)nc(N3CCCN(C)C[C@@H]3C)n2)CC1 [Ia-131]
32 | 7.22 | 1430 |  |  |  | 7.66 | C=CC(=O)N1CCN(c2cc(O[C@@H]3CCN(C)C3)nc(-c3noc([C@@]4(C)CCCc5sc(N)c(C#N)c54)n3)c2)CC1 [Ia-127]
33 | 7.96 | 12.6 |  |  |  | 8.39 | C=CC(=O)N1CCC(Oc2cc(-c3noc(C4(C)CCCc5sc(N)c(C#N)c54)n3)nc(N3CCN(C)C[C@@H]3C)c2)CC1 (stereo partly shown) [Ia-114]

Row | Compound | pIC50 ([1]; Table 36) | GI50 [2] [nM] | pIC50 [3] | pIC50 ([1]; Table 37) | pIC50 ([1]; Table 38) | pIC50 [4]
34 | C=CC(=O)N1CCN(c2cc(-c3noc([C@@]4(C)CCCc5sc(N)c(C#N)c54)n3)nc(OC3CC4CCC(C3)N4C)n2)CC1 (stereo partly shown) [Ia-70] | 7.31 |  | 6.38 |  |  | 
